We go through 17 compounds from US9445594B2, “Molecules having certain pesticidal utilities, intermediates, compositions, and processes, related thereto” (priority 2014, dated 2016).

Holding throughout (assay type): in vivo
For data set [1], the system named is Yellow Fever Mosquito (Aedes aegypti, AEDSAE) ("YFM"). The experiment in a line: Bioassays on YFM, 96-well plate larval assay. The following applies: about 1 day-old larvae, from 4000 ppm DMSO master plate diluted, room temperature, scored after 3 days. The method, then:
Certain molecules disclosed in this document were tested against YFM using procedures described in the following paragraph. In the reporting of the results, the “YFM Rating Table” was used (See Table Section).
Master plates containing 400 μg of a molecule dissolved in 100 μL of dimethyl sulfoxide (DMSO) (equivalent to a 4000 ppm solution) are used. A master plate of assembled molecules contains 15 μL per well. To this plate, 135 μL of a 90:10 water:acetone mixture is added to each well. A robot (Biomek® NXP Laboratory Automation Workstation) is programmed to dispense 15 μL aspirations from the master plate into an empty 96-well shallow plate (“daughter” plate). There are 6 reps (“daughter” plates) created per master. The created daughter plates are then immediately infested with YFM larvae.
The day before plates are to be treated, mosquito eggs are placed in Millipore water containing liver powder to begin hatching (4 g. into 400 mL). After the daughter plates are created using the robot, they are infested with 220 μL of the liver powder/larval mosquito mixture (about 1 day-old larvae). After plates are infested with mosquito larvae, a non-evaporative lid is used to cover the plate to reduce drying. Plates are held at room temperature for 3 days prior to grading. After 3 days, each well is observed and scored based on mortality.

The subject of data set [2] is Beet Armyworm (Spodoptera exigua, LAPHEG) ("BAW"). In words: Bioassays on BAW, 128-well diet tray assay. To be noted: 168 h, second instar larvae, 50 μg/cm^2 on artificial diet, 25° C., five to seven days, average of eight wells, read-out: BAW % Control (or Mortality) rating. The method, then: (§1) Certain molecules disclosed in this document were tested against BAW, CEW, and CL using procedures described in the following examples. In the reporting of the results, the “BAW, CEW, & CL Rating Table” was used (See Table Section).
Bioassays on BAW were conducted using a 128-well diet tray assay. one to five second instar BAW larvae were placed in each well (3 mL) of the diet tray that had been previously filled with 1 mL of artificial diet to which 50 μg/cm^2 of the test compound (dissolved in 50 μL of 90:10 acetone-water mixture) had been applied (to each of eight wells) and then allowed to dry. Trays were covered with a clear self-adhesive cover and held at 25° C., 14:10 light-dark for five to seven days. Percent mortality was recorded for the larvae in each well; activity in the eight wells was then averaged. The results are indicated in the table entitled “Table ABC: Biological Results” (See Table Section).

Data set [3] deals with Cabbage Looper (Trichoplusia ni, TRIPNI) ("CL"). The experiment in a line: Bioassays on CL, 128-well diet tray assay. The following applies: 168 h, second instar larvae, 50 μg/cm^2 on artificial diet, 25° C., five to seven days, average of eight wells, read-out: CL % Control (or Mortality) rating. As to the method:
as §1
Bioassays on CL were conducted using a 128-well diet tray assay. one to five second instar CL larvae were placed in each well (3 mL) of the diet tray that had been previously filled with 1 mL of artificial diet to which 50 μg/cm^2 of the test compound (dissolved in 50 μL of 90:10 acetone-water mixture) had been applied (to each of eight wells) and then allowed to dry. Trays were covered with a clear self-adhesive cover and held at 25° C., 14:10 light-dark for five to seven days. Percent mortality was recorded for the larvae in each well; activity in the eight wells was then averaged. The results are indicated in the table entitled “Table ABC: Biological Results” (See Table Section).

As for `COc1ccccc1NC(=O)NCCCc1ccc(-c2ncn(-c3ccc(OC(F)(F)F)cc3)n2)cc1` [F81, 1-(2-Methoxyphenyl)-3-(3-(4-(1-(4-(trifluoromethoxy)phenyl)-1H-1,2,4-triazol-3-yl)phenyl)propyl)urea], in data set [1], the “YFM % Control (or Mortality) rating” value was “B (More than 0 - Less than 80)”. For the same compound, the mortality at 50 µg/cm2 in data set [2] and in data set [3] was 50 to 100% each time.
`O=C(NCCCc1ccc(-c2ncn(-c3ccc(OC(F)(F)F)cc3)n2)cc1)Nc1ccccc1Cl` [F84, 1-(2-Chlorophenyl)-3-(3-(4-(1-(4-(trifluoromethoxy)phenyl)-1H-1,2,4-triazol-3-yl)phenyl)propyl)urea]: in data set [1], the “YFM % Control (or Mortality) rating” value is recorded as “B (More than 0 - Less than 80)”. In addition, the mortality at 50 µg/cm2 in data set [2] and in data set [3] was 50 to 100% in each case.
As for `O=C(NCCCc1ccc(-c2ncn(-c3ccc(OC(F)(F)F)cc3)n2)cc1)Nc1cccc(Cl)c1` [F85, 1-(3-Chlorophenyl)-3-(3-(4-(1-(4-(trifluoromethoxy)phenyl)-1H-1,2,4-triazol-3-yl)phenyl)propyl)urea], the “YFM % Control (or Mortality) rating” value in data set [1] is reported as “A (80-100)”. Moreover, the mortality at 50 µg/cm2 in data set [2] and in data set [3] was 50 to 100% in each case.
For the compound `CCc1ccccc1NC(=O)NCCCc1ccc(-c2ncn(-c3ccc(OC(F)(F)F)cc3)n2)cc1` [F86, 1-(2-Ethylphenyl)-3-(3-(4-(1-(4-(trifluoromethoxy)phenyl)-1H-1,2,4-triazol-3-yl)phenyl)propyl)urea], in data set [1], the “YFM % Control (or Mortality) rating” value is recorded as “A (80-100)”. The mortality at 50 µg/cm2 in data set [2] and in data set [3] was 50 to 100% in each case.
Take `CC(C)c1ccccc1NC(=S)NCCCCc1ccc(-c2ncn(-c3ccc(OC(F)(F)F)cc3)n2)cc1` [F88, 1-(2-Isopropylphenyl)-3-(4-(4-(1-(4-(trifluoromethoxy)phenyl)-1H-1,2,4-triazol-3-yl)phenyl)butyl)thiourea]: the “YFM % Control (or Mortality) rating” value in data set [1] is recorded as “A (80-100)”. Besides, the mortality at 50 µg/cm2 in data set [2] and in data set [3] was 50 to 100% in each case.
With `CC(C)c1ccccc1NC(=O)NCCCCc1ccc(-c2ncn(-c3ccc(OC(F)(F)F)cc3)n2)cc1` [F90, 1-(2-Isopropylphenyl)-3-(4-(4-(1-(4-(trifluoromethoxy)phenyl)-1H-1,2,4-triazol-3-yl)phenyl)butyl)urea], the “YFM % Control (or Mortality) rating” value in data set [1] was “D (No activity noticed in this bioassay)”. Besides, the mortality at 50 µg/cm2 in data set [2] and in data set [3] was 0% in each case.
`O=C(NCCCCc1ccc(-c2ncn(-c3ccc(OC(F)(F)F)cc3)n2)cc1)Nc1cccc(Cl)c1` [F93, 1-(3-Chlorophenyl)-3-(4-(4-(1-(4-(trifluoromethoxy)phenyl)-1H-1,2,4-triazol-3-yl)phenyl)butyl)urea]: the “YFM % Control (or Mortality) rating” value in data set [1] is “D (No activity noticed in this bioassay)”. Moreover, the mortality at 50 µg/cm2 in data set [2] is 0%; in data set [3] it was 50 to 100%.
The matching figures for `O=C(NCCCCc1ccc(-c2ncn(-c3ccc(OC(F)(F)F)cc3)n2)cc1)Nc1ccc(Cl)cc1` [F94, 1-(4-Chlorophenyl)-3-(4-(4-(1-(4-(trifluoromethoxy)phenyl)-1H-1,2,4-triazol-3-yl)phenyl)butyl)urea]: “D (No activity noticed in this bioassay)”, 0% and 50 to 100%.
In the case of `COc1ccccc1NC(=O)NCCCCc1ccc(-c2ncn(-c3ccc(OC(F)(F)F)cc3)n2)cc1` [F95, 1-(2-Methoxyphenyl)-3-(4-(4-(1-(4-(trifluoromethoxy)phenyl)-1H-1,2,4-triazol-3-yl)phenyl)butyl)urea], the “YFM % Control (or Mortality) rating” value in data set [1] is “D (No activity noticed in this bioassay)”. Also, the mortality at 50 µg/cm2 in data set [2] is 0%; in data set [3], 50 to 100%.
The matching figures for `COc1ccc(NC(=O)NCCCCc2ccc(-c3ncn(-c4ccc(OC(F)(F)F)cc4)n3)cc2)cc1` [F97, 1-(4-Methoxyphenyl)-3-(4-(4-(1-(4-(trifluoromethoxy)phenyl)-1H-1,2,4-triazol-3-yl)phenyl)butyl)urea]: “D (No activity noticed in this bioassay)”, 0 to 50% and 0%.
The matching figures for `CCc1ccccc1NC(=O)NCCCCc1ccc(-c2ncn(-c3ccc(OC(F)(F)F)cc3)n2)cc1` [F98, 1-(2-Ethylphenyl)-3-(4-(4-(1-(4-(trifluoromethoxy)phenyl)-1H-1,2,4-triazol-3-yl)phenyl)butyl)urea]: “D (No activity noticed in this bioassay)”, 0 to 50% and 0%.
The matching figures for `Cc1ccc(NC(=O)NCCCCc2ccc(-c3ncn(-c4ccc(OC(F)(F)F)cc4)n3)cc2)cc1` [F99, 1-(p-Tolyl)-3-(4-(4-(1-(4-(trifluoromethoxy)phenyl)-1H-1,2,4-triazol-3-yl)phenyl)butyl)urea]: “D (No activity noticed in this bioassay)”, 0 to 50% and 0%.
As for `Cc1ccccc1NC(=O)NCc1ccc(-c2ncn(-c3ccc(OC(F)(F)F)cc3)n2)cc1` [F100, 1-(o-Tolyl)-3-(4-(1-(4-(trifluoromethoxy)phenyl)-1H-1,2,4-triazol-3-yl)benzyl)urea], the “YFM % Control (or Mortality) rating” value in data set [1] is “D (No activity noticed in this bioassay)”. The mortality at 50 µg/cm2 in data set [2] and in data set [3] was 0% throughout.
For the compound `Cc1ccc(NC(=O)NCc2ccc(-c3ncn(-c4ccc(OC(F)(F)F)cc4)n3)cc2)cc1` [F102, 1-(p-Tolyl)-3-(4-(1-(4-(trifluoromethoxy)phenyl)-1H-1,2,4-triazol-3-yl)benzyl)urea], the “YFM % Control (or Mortality) rating” value in data set [1] is reported as “D (No activity noticed in this bioassay)”. The mortality at 50 µg/cm2 in data set [2] and in data set [3] was 0% throughout.
As to `O=C(NCc1ccc(-c2ncn(-c3ccc(OC(F)(F)F)cc3)n2)cc1)Nc1cccc(Cl)c1` [F103, 1-(3-Chlorophenyl)-3-(4-(1-(4-(trifluoromethoxy)phenyl)-1H-1,2,4-triazol-3-yl)benzyl)urea], the “YFM % Control (or Mortality) rating” value in data set [1] was “A (80-100)”. Also, the results for the mortality at 50 µg/cm2 in data set [2] and in data set [3] were 0 to 50% and 50 to 100%, respectively.
The matching figures for `O=C(NCc1ccc(-c2ncn(-c3ccc(OC(F)(F)F)cc3)n2)cc1)Nc1ccccc1Cl` [F104, 1-(2-Chlorophenyl)-3-(4-(1-(4-(trifluoromethoxy)phenyl)-1H-1,2,4-triazol-3-yl)benzyl)urea]: “B (More than 0 - Less than 80)”, 50 to 100% and 0 to 50%.
As to `O=C(NCc1ccc(-c2ncn(-c3ccc(OC(F)(F)F)cc3)n2)cc1)Nc1ccc(Cl)cc1` [F105, 1-(4-Chlorophenyl)-3-(4-(1-(4-(trifluoromethoxy)phenyl)-1H-1,2,4-triazol-3-yl)benzyl)urea], the “YFM % Control (or Mortality) rating” value in data set [1] was “B (More than 0 - Less than 80)”. The mortality at 50 µg/cm2 in data set [2] and in data set [3] was 50 to 100% in each case.

A word on the mortality: it is the percentage killed.
